# “Also recorded” adds a separate entry of the source. Non-standard residues stand in square brackets, D forms with d. Residues, ends and D or L forms follow the SMILES beside them. Aoe = N[C@@H](CCCCCC(=O)[C@@H]1CO1)C(=O)O
# Columns and labels:
# α-tubulin deacetylation = experiment: acetylated α-tubulin in cells (AcTubulin cytoblot, immunofluorescence, Western blot); format: cell-based, human; conditions: for effect on tubulin deacetylation / α-tubulin acetylation in cells: A549 (also BS-C-1) cells, tubacin/JCWII114, niltubacin/JCWII153 2 μM, TSA 100 nM-4 μM, library ~2-5 μM, 18 h
# Experimental: (§1) A549 cells were seeded at a density of 4,000 cells/50 μl in DMEM+ in white tissue culture-treated 384-well plates (Nalge Nunc) using a Multidrop 384 liquid dispenser (Labsystems). Library small molecules were pinned twice (100-150 nl/pin) from ˜1 mM stock solutions (DMSO) and incubated for 18 hours. For the ITSA1+AcTubulin assay, ITSA1 (50 μM) was added four hours after pin-transfer of library molecules. Media was aspirated with a 16-channel wand. For the acetylated α-tubulin cytoblot (AcTubulin), 40 μl/well of fixation solution (3.7% formaldehyde (1:10 from 37% stock) in Tris-buffered saline (TBS, 0.15 M NaCl, 0.02 M Tris-Cl, pH 7.4) was added and plates incubated for twenty minutes at room temperature. After aspiration, 30 μl 100% methanol (−20° C.) was added and incubated for five minutes at room temperature. After aspirating and washing three times with 90 μl of antibody dilution buffer (ADB, TBS/2% bovine serum albumin, 0.1% TritonX-100) the wells were blocked for twenty minutes in ADB. After aspirating, 20 μl/well of ADB containing anti-acetylated α-tubulin antibody (mouse; 1:1000) and anti-mouse IgG horseradish peroxidase (HRP)-conjugated antibody (1:750) was added and incubated overnight (4° C.). For the anti-acetyl lysine cytoblot (AcLysine), 40 μl/well of fixation solution (95% ethanol/5% acetic acid, −20° C.) was added and plates incubated for five minutes at room temperature. Wells were aspirated, washed, and blocked in ADB as for the AcTubulin protocol. After aspirating, 20 μl/well of ADB containing anti-acetylated lysine (rabbit; 1:375) and anti-rabbit IgG-HRP conjugated antibody (1:750) was added and incubated overnight (4° C.). For the anti-acetylated histone H3 (AcHistH3) and anti-acetylated histone H4 (AcHistH4) cytoblots, cells were fixed, washed, and blocked in ADB as for the AcLysine cytoblot. After aspirating, 20 μl/well of ADB containing anti-acetylated histone H3 antibody (rabbit, 1:500) or anti-acetylated histone H4 antibody (rabbit, 1:500) was added and incubated for two hours at room temperature. Wells were aspirated and washed twice with 80 μl of ADB. After aspirating, 20 μl/well of ADB containing anti-rabbit IgG-HRP conjugated antibody (1:1000) was added and incubated for two hours (room temperature). For the AcTubulin and AcLysine assays, plates were washed three times with TBS before adding 20 μl/well of enhanced chemiluminescent (ECL) mixture. For the AcHistH3 and AcHistH4 assays, plates were washed three times with 80 μl TBS with 1% Triton X-100 and once with 80 μl TBS before adding 20 μl/well of ECL mixture. Plates were read on an Analyst plate reader (LJL Biosystems) with an integration time of 0.1 seconds.
# (§2) 1,3-dioxanes from single polystyrene macrobeads were prepared as 1-2 mM stock solutions in DMSO as described [Hubbert, C., Guardiola, A., Shao, R., Kawaguchi, Y., Ito, A., Nixon, A., Yoshida, M., Wang, X. F., and Yao, T. P. (2002). HDAC6 is a microtubule-associated deacetylase. Nature 417, 455-458]. Bead decoding and structure determination were as described [See for example, Hubbert, C., Guardiola, A., Shao, R., Kawaguchi, Y., Ito, A., Nixon, A., Yoshida, M., Wang, X. F., and Yao, T. P. (2002). HDAC6 is a microtubule-associated deacetylase. Nature 417, 455-458; and Piperno, G., LeDizet, M., and Chang, X. J. (1987). Microtubules containing acetylated alpha-tubulin in mammalian cells in culture. J. Cell Biol. 104, 289-302]. Small molecules (˜2-5 μM) of interest were retested using a sample from the plate of stock solutions by fluorescence microscopy and comparison to the effects of trichostatin (300 nM to 1 μM).
# (§3) A549 cells were seeded at a density of 50,000/200 μl in DMEM+ on the surface of glass coverslips on top of Parafilm in a 10 cm dish and allowed to attach overnight. For detection of acetylated α-tubulin, cells were permeabilized and fixed with 100 mM K-PIPES, pH 6.8, 10 mM EGTA, 1 mM MgCl2, 0.2% triton X-100, 0.2% glutaraldehyde for fifteen minutes. […]
# A549 cells = experiment: mitotic abnormalities by immunofluorescence; format: cell-based, human; conditions: 18 h or 24 h treatment, TSA 10 μM in FIG. 42C
# Experimental: Detection of acetylated α-tubulin and acetylated histones by immunofluorescence was performed as described in Example 6 above. For determining microtubule stability, A549 cells were treated as indicated, fixed in glutaraldehyde, and stained for acetylated α-tubulin and total α-tubulin in antibody dilution buffer (ADB, Tris-buffered saline (TBS), 0.15 M NaCl, 0.02 M Tris-Cl, pH 7.4, with 2% bovine serum albumin and 0.1% Triton-X 100). For cold-depolymerization, cells were incubated at 4° C. or 37° C. for an additional 90 minutes before fixation. For calcium depolymerization, cells were incubated at 37° C. for 10 minutes in a microtubule-stabilizing buffer (0.2% NP-40, 5 mM MgCl2, 2 mM EGTA, 2 M glycerol, 100 mM PIPES, pH 6.8) with and without the addition of CaCl2 (2 mM) before glutaraldehyde fixation. For co-localization experiments, biotubacin (50 μM) treated A549 cells were fixed in 3.7% formaldehyde in TBS and processed as for detecting acetylated α-tubulin (See Example 6 above) with biotubacin detected using streptavidin-TR (1:500). HDAC6 was detected using a rabbit polyclonal antibody (1:250-1:750; C.M.G., unpublished data) under the conditions used to detect acetylated α-tubulin (See Example 6 above). Filamentous actin in HT-1080 cells was detected using TR-conjugated phalloidin (1 μg/mL), and depolymerized actin using FITC-conjugated deoxyribonuclease (10 μg/mL), following fixation in 3.7% formaldehyde in TBS. p58 (1:100) in NIH-3T3 cells was detected after fixation in 3.7% formaldehyde in TBS. Images for these experiments were collected on a Zeiss LSM510 confocal scanning laser microscope at the appropriate wavelengths using the accompanying software and processed with Adobe Photoshop. Deconvoluted serial images of TSA and DMSO treated A549 cells were obtained by taking sections (8μ) on a Zeiss Axioskop 2 microscope using an AxioCam camera and the accompanying software. Rat hippocampal neuronal cultures were fixed at room temperature for 15 min in phosphate-buffered saline (PBS) containing 4% paraformaldehyde. […]
# HDAC6F = biological target: T1, HDAC6F (Homo sapiens, UniProt Q9UBN7); experiment: in vitro tubulin deacetylase (TDAC) assay, immunoprecipitated wild-type HDAC6F, MAP-stabilized tubulin; format: biochemical; conditions: TSA 300 nM or 1 μM, tubacin, niltubacin, trapoxin B 1 μM
# T1 construct: made in house; host or cells: TAg Jurkat cells, transient transfection, anti-FLAG M2 immunoprecipitation
# T1 sequence (Q9UBN7 1-1215): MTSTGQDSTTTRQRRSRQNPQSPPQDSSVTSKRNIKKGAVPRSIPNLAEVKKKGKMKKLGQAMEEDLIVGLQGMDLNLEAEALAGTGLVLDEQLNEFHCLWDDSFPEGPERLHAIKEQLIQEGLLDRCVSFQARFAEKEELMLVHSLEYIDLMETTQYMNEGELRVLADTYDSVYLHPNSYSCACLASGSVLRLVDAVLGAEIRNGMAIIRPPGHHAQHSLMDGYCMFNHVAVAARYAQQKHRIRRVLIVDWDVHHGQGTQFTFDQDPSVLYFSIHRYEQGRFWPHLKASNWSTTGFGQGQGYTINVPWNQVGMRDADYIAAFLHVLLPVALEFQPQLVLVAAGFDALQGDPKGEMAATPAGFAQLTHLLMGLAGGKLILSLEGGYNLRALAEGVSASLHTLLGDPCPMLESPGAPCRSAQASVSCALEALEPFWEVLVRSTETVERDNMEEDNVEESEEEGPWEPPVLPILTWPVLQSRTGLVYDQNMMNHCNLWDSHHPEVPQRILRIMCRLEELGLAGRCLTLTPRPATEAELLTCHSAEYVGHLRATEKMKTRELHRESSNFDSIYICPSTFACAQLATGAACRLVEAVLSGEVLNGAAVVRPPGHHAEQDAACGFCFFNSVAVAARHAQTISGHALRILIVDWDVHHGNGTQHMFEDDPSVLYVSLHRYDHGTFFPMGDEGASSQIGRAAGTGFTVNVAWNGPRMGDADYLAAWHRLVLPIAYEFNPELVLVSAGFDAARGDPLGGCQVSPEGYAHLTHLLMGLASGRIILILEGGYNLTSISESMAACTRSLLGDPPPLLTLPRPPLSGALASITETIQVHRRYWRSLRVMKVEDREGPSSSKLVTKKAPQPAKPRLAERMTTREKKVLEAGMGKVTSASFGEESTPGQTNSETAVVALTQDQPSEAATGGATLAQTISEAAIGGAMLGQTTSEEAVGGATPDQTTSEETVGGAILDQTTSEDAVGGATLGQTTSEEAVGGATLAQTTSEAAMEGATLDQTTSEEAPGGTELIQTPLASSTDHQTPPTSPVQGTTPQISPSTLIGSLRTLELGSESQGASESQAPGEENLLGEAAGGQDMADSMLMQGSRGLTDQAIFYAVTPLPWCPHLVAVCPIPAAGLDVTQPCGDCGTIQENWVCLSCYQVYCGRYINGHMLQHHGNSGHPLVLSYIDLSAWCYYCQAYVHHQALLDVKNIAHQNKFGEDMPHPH
# Source text: Tubulin and MAPs were isolated from bovine brain as described [See http://mitchison.med.harvard.edu/protocols/tubprep.html]. Whole brain and fractions from phosphocellulose chromatography were blotted for HDAC6 and acetylated α-tubulin. Cultured hippocampal neurons from dissociated 1-day old rat brains were transfected with an enhanced green fluorescent protein (EGFP)-actin construct at 4-5 days using the calcium phosphate method [E. N. Star, D. J. Kwiatkowski and V. N. Murthy, Nat. Neurosci. […] K. Miranti and M. E. Greenberg, J. Neurosci. […] Transfected cultures were allowed to grow for at least 48 h before the addition of experimental compounds.
# [^3H]Acetate-incorporated histones were isolated from butyrate-treated HeLa cells as described [J. Taunton, C. […] Immunoprecipitates were incubated with acetylated histones and HDAC activity determined by scintillation counting as described [J. Taunton, C. […] TDAC assays were performed with immunoprecipitates using MAP-stabilized microtubules polymerized from MAP-rich tubulin fraction as described [C. […] Reactions were incubated (2 h) at 37° C., then incubated on ice (15 min).
# histone deacetylation = experiment: acetylated lysine / acetylated histone in cells (AcLysine cytoblot, immunofluorescence, Western blot); format: cell-based, human; conditions: A549 (also BS-C-1) cells, tubacin, niltubacin 2 μM, histacin 20 μM, library ~2-5 μM, 18 h
# Experimental: as §1, §2, §3
# [1] = listed as carboxylic acid analogue of JCWII114
compound,measurement,setting,value
"C[C@@H]1NC(=O)[C@H]2CCCN2C(=O)[C@H](CCCCCC(=O)[C@@H]2CO2)NC(=O)[C@@H](C)NC1=O [HC toxin, reference compound]",effect on tubulin deacetylation / α-tubulin acetylation in cells,α-tubulin deacetylation,have no effect upon α-tubulin acetylation levels; also recorded: no effect on tubulin acetylation
same,mitotic abnormalities,A549 cells,caused a significant number of abnormal mitotic cells
O=C(CCCCCCC(=O)Nc1ccc(C2OC(CSc3nc(-c4ccccc4)c(-c4ccccc4)o3)CC(c3ccc(CO)cc3)O2)cc1)NO (stereo not shown) [JCWII169],potency of inducing α-tubulin acetylation relative to tubacin,"α-tubulin deacetylation; AcTubulin cytoblot (enantiotubacin), cells (biotubacin)",equally as potent as tubacin
same,selectivity as TDAC inhibitor relative to tubacin (fold less selective),"α-tubulin deacetylation; after re-synthesis and retesting, unpublished data",~5 fold
same,potency and selectivity of the enantiomers JCWII114 and JCWII169 compared,"α-tubulin deacetylation; immunofluorescence and Western blot, A549 cells, 5 h or 18 h",No significant difference in selectivity or potency
"O=C1N[C@@H](Cc2ccccc2)C(=O)N2CCC[C@@H]2C(=O)N[C@@H](CCCCCC(=O)[C@@H]2CO2)C(=O)N[C@H]1Cc1ccccc1 [trapoxin, trapoxin B, reference compound] (cyclo(FF[dP][Aoe]))",effect on tubulin deacetylation / α-tubulin acetylation in cells,α-tubulin deacetylation,have no effect upon α-tubulin acetylation levels
same,inhibition of TDAC activity of wild-type HDAC6F,HDAC6F,not inhibited by the addition of niltubacin or trapoxin
same,inhibition of TDAC activity of wild-type HDAC6F,HDAC6F; listed as trapoxin B,did not
O=C(O)CCCCCCC(=O)Nc1ccc([C@@H]2OC(c3ccc(CO)cc3)C[C@H](CSc3nc(-c4ccccc4)c(-c4ccccc4)o3)O2)cc1 (stereo partly shown) [JCWII153],effect on tubulin deacetylation / α-tubulin acetylation in cells,α-tubulin deacetylation,inactivity; also recorded: had no effect on α-tubulin or histone acetylation
same,effect on tubulin deacetylation / α-tubulin acetylation in cells,α-tubulin deacetylation; [1],did not affect histone or tubulin deacetylation
same,effect on histone deacetylation / lysine or histone acetylation in cells,histone deacetylation,inactivity; also recorded: had no effect on α-tubulin or histone acetylation
same,effect on histone deacetylation / lysine or histone acetylation in cells,histone deacetylation; [1],did not affect histone or tubulin deacetylation
same,inhibition of TDAC activity of wild-type HDAC6F,HDAC6F,did not; also recorded: not inhibited by the addition of niltubacin or trapoxin

# Reference: patent publication US8178579B2, “Dioxanes and uses thereof” (President and Fellows of Harvard College, priority 2001, dated 2012)
